Data published in ChEMBL document CHEMBL6182895, “Synthesis, in vitro and in vivo evaluation, and computational modeling analysis of thioxothiazolidine derivatives as highly potent and selective α-amylase inhibitors” (Eur J Med Chem, 2025).
Activity calls are given as the source filed them. No cut-off for these calls is given here.

What was measured:
Homo sapiens [1] = species: Homo sapiens; assay: Inhibition of alpha-amylase (unknown origin) using starch as substrate preincubated for 10 mins followed by substrate addition and measured after 10 mins relative to control; design: concentration or dose not given beside the values; details: time 20.0 min
Homo sapiens [2] = species: Homo sapiens; assay: Inhibition of alpha-glucosidase (unknown origin) using p-NPG as substrate preincubated for 5 mins followed by substrate addition and measured after 30 mins relative to control; design: concentration or dose not given beside the values; details: time 35.0 min
[3] = Inhibition of alpha-amylase (unknown origin); design: species or system Homo sapiens
[4] = Inhibition of alpha-amylase (unknown origin) using starch as substrate measured after 30 mins; design: species or system Homo sapiens
[5] = Inhibition of porcine pancreatic alpha-amylase using starch as substrate preincubated for 10 mins followed by substrate addition and measured after 5 mins; design: species or system Sus scrofa
[6] = Inhibition of porcine pancreatic alpha-amylase using starch as substrate preincubated for 10 mins followed by substrate addition and measured after 30 mins; design: species or system Sus scrofa
[7] = Inhibition of alpha-amylase (unknown origin) using starch as substrate preincubated for 10 mins followed by substrate addition and measured after 10 mins; design: species or system Homo sapiens
Homo sapiens [8] = species: Homo sapiens; assay: Mixed type of inhibition of alpha-amylase (unknown origin) assessed as change in Km and Vmax of substrate using starch as substrate and measured after 10 mins by Lineweaver-burk plot analysis
Rattus norvegicus [9] = assay: Antidiabetic activity against streptozotocin-induced diabetic Wistar rat model assessed as blood glucose level at 50 mg/kg, po and measured on day 1 (reference value: 324.7 +/-6.24 mg/dl); type: functional; details: time 1 day
Rattus norvegicus [10] = assay: Antidiabetic activity against streptozotocin-induced diabetic Wistar rat model assessed as blood glucose level at 50 mg/kg, po and measured on day 7 (reference value: 378.8 +/-6.48 mg/dl); type: functional; details: time 7 day
Rattus norvegicus [11] = assay: Antidiabetic activity against streptozotocin-induced diabetic Wistar rat model assessed as blood glucose level at 50 mg/kg, po and measured on day 14 (reference value: 388.3 +/-6.34 mg/dl); type: functional; details: time 14 day
Rattus norvegicus [12] = assay: Antidiabetic activity against streptozotocin-induced diabetic Wistar rat model assessed as restoration of metabolic homeostasis by measuring serum urea level at 50 mg/kg, po measured on day 1 to 14 (reference value: 124.68 +/-2.16 mg/dl); type: functional; details: time 1-14 day
Rattus norvegicus [13] = assay: Antidiabetic activity against streptozotocin-induced diabetic Wistar rat model assessed as restoration of metabolic homeostasis by measuring serum creatinine level at 50 mg/kg, po measured on day 1 to 14 (reference value: 116.81 +/-9.26 uM); type: functional; details: time 1-14 day
Rattus norvegicus [14] = assay: Antidiabetic activity against streptozotocin-induced diabetic Wistar rat model assessed as restoration of metabolic homeostasis by measuring decrease in […] level in serum at 50 mg/kg, po measured on day 1 to 14; type: functional, organism-based; details: time 1-14 day
Rattus norvegicus [15] = assay: Antidiabetic activity against streptozotocin-induced diabetic Wistar rat model assessed as restoration of metabolic homeostasis by measuring AST level in serum at 50 mg/kg, po measured on day 1 to 14 (reference value: 133.49 +/-2.52 IU/L); type: functional; details: time 1-14 day
Rattus norvegicus [16] = assay: Antidiabetic activity against streptozotocin-induced diabetic Wistar rat model assessed as restoration of metabolic homeostasis by measuring ALT level in serum at 50 mg/kg, po measured on day 1 to 14 (reference value: 35.2 +/-1.58 IU/L); type: functional; details: time 1-14 day
Rattus norvegicus [17] = assay: Antidiabetic activity against streptozotocin-induced diabetic Wistar rat model assessed as restoration of metabolic homeostasis by measuring ALP level in serum at 50 mg/kg, po measured on day 1 to 14 (reference value: 195.13 +/-1.08 IU/L); type: functional; details: time 1-14 day
Rattus norvegicus [18] = assay: Protection against diabetes-induced organ dysfunction in streptozotocin-induced diabetic Wistar rat model assessed as reduction in liver damage by measuring fewer congestive blood vessels, reduced hepatocyte ballooning with fewer lipid droplets at 50 mg/kg, po and measured on day 14 by Hematoxylin-Eosin staining based analysis; type: functional, organism-based; details: time 14.0 day
Rattus norvegicus [19] = assay: Protection against diabetes-induced organ dysfunction in streptozotocin-induced diabetic Wistar rat model assessed as reduction in kidney damage by measuring kidney with less severe retraction and swelling with measurable hemorrhages in renal tubules and glomeruli at 50 mg/kg, po and measured on day 14 by Hematoxylin-Eosin staining based analysis; type: functional, organism-based; details: time 14.0 day
Rattus norvegicus [20] = assay: Protection against diabetes-induced organ dysfunction in streptozotocin-induced diabetic Wistar rat model assessed as reduction in pancreas damage by measuring visible improvement in islet structure with noticeable signs of atrophy remained at 50 mg/kg, po and measured on day 14 by Hematoxylin-Eosin staining based analysis; type: functional, organism-based; details: time 14.0 day

inhibition (Homo sapiens [1]) [%]	inhibition (Homo sapiens [2]) [%]	Compound	further results
43.2	6.23	CC(C)CNC(=O)CN1C(=O)/C(=C/c2nc3ccccc3s2)SC1=S	–
81.2	76.4	C[C@H]1O[C@H](O[C@H]2[C@H](O)[C@@H](O)[C@@H](O[C@H]3[C@H](O)[C@@H](O)C(O)O[C@@H]3CO)O[C@@H]2CO)[C@H](O)[C@@H](O)[C@@H]1N[C@H]1C=C(CO)[C@@H](O)[C@H](O)[C@H]1O (stereo partly specified) [ACARBOSE]	IC50 [3]: 1.06 µM; IC50 [4]: 0.0125 µM; IC50 [5]: 1.56 µM; IC50 [6]: 104 µM; IC50 [7]: 951 µM; inhibition (Homo sapiens [8]): Active; Activity (Rattus norvegicus [9]): 315.8 mg/dL; Activity (Rattus norvegicus [10]): 170.6 mg/dL; Activity (Rattus norvegicus [11]): 119.7 mg/dL; Activity (Rattus norvegicus [12]): 55.28 mg/dL; Activity (Rattus norvegicus [13]): 80.21 µM; Activity (Rattus norvegicus [14]): Active; Activity (Rattus norvegicus [15]): 48.87 IU/L; Activity (Rattus norvegicus [16]): 12.14 IU/L; Activity (Rattus norvegicus [17]): 145.34 IU/L; Activity (Rattus norvegicus [18]): Active; Activity (Rattus norvegicus [19]): Active; Activity (Rattus norvegicus [20]): Active
23.3	4.88	CC(C)CNC(=O)CN1C(=O)/C(=C/c2nccn2C)SC1=S	–
10.2	8.36	Cn1ccnc1/C=C1\SC(=S)N(CC(=O)Nc2ccc(Br)cc2F)C1=O	–
38.2	8.25	Cn1ccnc1/C=C1\SC(=S)N(CC(=O)Nc2c(F)cc(Br)cc2Cl)C1=O	–
37.8	7.87	O=C(CN1C(=O)/C(=C/c2csc3ccccc23)SC1=S)Nc1cccnn1	–
29.6	6.63	O=C(CN1C(=O)/C(=C/c2nc3ccccc3s2)SC1=S)NC12CC3CC(CC(C3)C1)C2	–
15.2	8.22	Cn1ccnc1/C=C1\SC(=S)N(CC(=O)NC23CC4CC(CC(C4)C2)C3)C1=O	–
60.4	6.49	O=C(CN1C(=O)/C(=C/c2csc3ccccc23)SC1=S)Nc1c(F)cc(F)cc1Br	IC50 [7]: 190 µM
–	–	COc1ccc(C2C(C#N)=C(NC(C)=O)Oc3oc4ccccc4c(=O)c32)cc1 (stereo unspecified)	IC50 [4]: 0.00204 µM
–	–	CC(=O)N1C(=O)C(Cc2cn(-c3ccc([N+](=O)[O-])cc3[N+](=O)[O-])nc2-c2ccc(O)cc2)SC1=S (stereo unspecified)	IC50 [6]: 638 µM
37.4	7.42	O=C(CN1C(=O)/C(=C/c2nc3ccccc3s2)SC1=S)Nc1cccnn1	–
–	–	O=C(Cc1c[nH]c2ccccc12)NNS(=O)(=O)c1ccccc1F	IC50 [3]: 1.8 µM
69.2	7.65	O=C(CN1C(=O)/C(=C/c2nc3ccccc3s2)SC1=S)Nc1ccc(Br)cc1F	IC50 [7]: 128 µM
32.5	6.53	O=C(CN1C(=O)/C(=C/c2csc3ccccc23)SC1=S)NC12CC3CC(CC(C3)C1)C2	–
–	–	COc1ccc(C(=O)NC(=O)NC2CC2)cc1	IC50 [3]: 1.57 µM
29.6	8.62	CC(C)CNC(=O)CN1C(=O)/C(=C/c2csc3ccccc23)SC1=S	–
–	–	O=C1OCc2cc(-c3ccc(C(F)(F)F)cc3)ccc21	IC50 [3]: 85.4 µM
